How the values were obtained:
[1] = molecular target: β-glucosidase; assay: p-nitrophenyl glucopyranoside hydrolysis, absorbance at […] nm; assay type: biochemical, Prunus dulcis
[2] = molecular target: β-galactosidase (Escherichia coli, UniProt P00722); assay: p-nitrophenyl galactopyranoside hydrolysis, absorbance at […] nm; assay type: biochemical
Sequence of β-galactosidase (P00722 2-1024): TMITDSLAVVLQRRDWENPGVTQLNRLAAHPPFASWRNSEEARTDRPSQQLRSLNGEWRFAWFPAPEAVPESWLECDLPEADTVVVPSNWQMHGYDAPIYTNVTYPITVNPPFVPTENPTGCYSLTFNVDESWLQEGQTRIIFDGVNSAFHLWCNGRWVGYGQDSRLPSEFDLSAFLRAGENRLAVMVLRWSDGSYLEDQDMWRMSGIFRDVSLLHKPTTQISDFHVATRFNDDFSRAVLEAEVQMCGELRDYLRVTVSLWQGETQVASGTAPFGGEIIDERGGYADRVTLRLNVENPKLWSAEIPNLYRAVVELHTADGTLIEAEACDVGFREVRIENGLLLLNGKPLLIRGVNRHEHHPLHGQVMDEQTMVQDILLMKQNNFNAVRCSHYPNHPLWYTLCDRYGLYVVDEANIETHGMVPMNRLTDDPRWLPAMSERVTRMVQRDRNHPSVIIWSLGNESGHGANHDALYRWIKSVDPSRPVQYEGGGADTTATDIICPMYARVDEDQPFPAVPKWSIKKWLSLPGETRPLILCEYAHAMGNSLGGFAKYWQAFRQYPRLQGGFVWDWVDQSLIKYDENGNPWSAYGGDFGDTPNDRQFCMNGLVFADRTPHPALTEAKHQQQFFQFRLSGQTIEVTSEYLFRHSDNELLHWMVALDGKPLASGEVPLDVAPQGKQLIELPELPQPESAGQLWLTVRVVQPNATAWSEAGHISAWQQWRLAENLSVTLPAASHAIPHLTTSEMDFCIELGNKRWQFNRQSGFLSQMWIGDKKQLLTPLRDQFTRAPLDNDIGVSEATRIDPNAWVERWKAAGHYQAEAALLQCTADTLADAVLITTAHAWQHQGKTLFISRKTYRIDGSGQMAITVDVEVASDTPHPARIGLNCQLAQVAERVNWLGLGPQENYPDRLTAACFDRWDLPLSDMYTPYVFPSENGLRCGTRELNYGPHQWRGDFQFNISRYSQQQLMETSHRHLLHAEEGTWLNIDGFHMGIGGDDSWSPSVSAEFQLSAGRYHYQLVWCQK

`CN1C[C@H]2[C@H](CO)[C@H]2[C@H](O)[C@H]1CO` [compound 9, (1S,4R,5S,6S,7S)-4,7-bis(Hydroxymethyl)-3-methyl-3-azabicyclo[4.1.0]heptan-5-ol] gave a Ki [1] of 4.43 mM.
`O=C(O)[C@H]1[C@@H]2CN[C@H](CO)[C@@H](O)[C@@H]21` [8a, (1R,4R,5S,6S,7S)-5-Hydroxy-4-(hydroxymethyl)-3-azabicyclo[4.1.0]heptane-7-carboxylic Acid] was tested, and the Ki [2] was 1.18 mM.

From publication PMC7745444 (ACS Omega, 2020)
